One compound from patent EP4574835A1, “AMORPHOUS FORM OF KETOAMIDE DERIVATIVE, AND PREPARATION METHOD THEREFOR” (Guangdong Raynovent Biotech Co., Ltd., priority 2022, dated 2024) can be followed below.

Structures are written as SMILES.

A short description of this series: Pharmacokinetic model of mouse. The format is in vivo.

`O=C(NC1CCCC1)C(=O)[C@H](C[C@@H]1CCNC1=O)NC(=O)[C@@H]1[C@H]2CCC[C@H]2CN1C(=O)[C@@H](NC(=O)C(F)(F)F)C1CCCCC1` [Compound of Formula (I)]: the clearance rate result is listed as “lower” and the half-life result is reported as “longer”.
